This note sets out measurements from US12435087B2, “Modulators of DCN-1 and methods of use thereof” (Cellarity, Inc., priority 2023, dated 2025).

The target of one assay is DCN1 protein (Homo sapiens (Human), UniProt Q96GG9). As to the kind of experiment: Intact protein MS analysis with the RapidFire-TOF system (covalent adduct formation). As to conditions: 400 nM DCN1, incubated at room temperature for 3 hours. In kind it is binding. The essentials:
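Tag-free His-TEV-DCN1 expressed in E. coli at 400 nM in 25 mM Tris-HCl, 200 mM NaCl, 1 mM DTT, incubated with 11 compound concentrations at room temperature for 3 h unless otherwise specified. Quenched with 0.2% formic acid; intact-protein RapidFire Q-TOF MS, deconvoluted to detect parent and compound-adduct masses.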

Assay [1] addresses DCN1 (DCUND1) protein PONY domain (Homo sapiens (Human), UniProt Q96GG9). Nature of the assay: TR-FRET assay (binding to DCN-1, displacement of FAM-labeled probe). The essentials: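 Compounds read at 1, 5 and 24 h, 0.1% final DMSO, by TR-FRET between terbium-streptavidin on biotinylated DCN1 PONY domain (E. coli) and a FAM-tagged non-covalent inhibitor probe. Two setups used, 5 nM protein with 20 nM labelled probe, or 0.31 nM protein with 100 nM labelled plus 800 nM unlabelled probe; buffer had TritonX and 200 mM NaCl. % activity relative to high (with probe) and low (without probe) controls.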
On the technique in general: Time-resolved FRET reads energy transfer from a long-lived donor to a nearby acceptor.

The mark [2] stands for this setting: 24 hr after treatment with compound, read-out: TR FRET IC50 24 hr.
Setting [3] is: TR FRET IC50 1 hr (nM), 1 hr after treatment with compound.
[4] abbreviates: read-out: TR FRET IC50 1 hr, 1 hr after treatment with compound.

Read-outs that look alike come from different tables or passages of the source. Bounds are passed on as bounds.

Sequence of DCN1 (DCUND1) protein PONY domain (Q96GG9 60-248): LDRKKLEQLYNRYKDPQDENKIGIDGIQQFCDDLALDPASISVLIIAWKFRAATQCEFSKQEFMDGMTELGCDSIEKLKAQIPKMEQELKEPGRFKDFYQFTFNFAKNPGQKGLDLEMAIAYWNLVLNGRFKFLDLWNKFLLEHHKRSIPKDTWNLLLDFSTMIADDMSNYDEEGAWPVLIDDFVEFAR
Sequence of DCN1 protein (Q96GG9 whole entry): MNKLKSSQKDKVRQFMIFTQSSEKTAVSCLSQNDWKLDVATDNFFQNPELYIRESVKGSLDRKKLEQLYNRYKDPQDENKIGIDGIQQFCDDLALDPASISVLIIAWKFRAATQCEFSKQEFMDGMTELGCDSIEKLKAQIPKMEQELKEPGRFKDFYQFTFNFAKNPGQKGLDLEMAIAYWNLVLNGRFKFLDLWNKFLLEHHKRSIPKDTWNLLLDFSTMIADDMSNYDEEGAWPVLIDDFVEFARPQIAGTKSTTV

As to `CC#CC(=O)Nc1cccc([C@H]2c3c(C)nn(-c4ccccc4)c3N(CC)C(=O)[C@H]2NC(=O)c2cccc(C(F)(F)F)c2)c1` (racemic) [Compound I-19], at DCN1 protein, the Emax lay within 0 to 30%. Also, the IC50 in assay [1] (setting [2]) and in assay [1] (setting [3]) was more than 3000 nM in each case.

Consider `C=C(CN1CCC(F)(F)C1)C(=O)NCc1cccc([C@@H]2c3cnn(-c4ccccc4)c3N(CC)C(=O)[C@H]2NC(=O)c2cccc(C(F)(F)F)c2)c1` [Compound I-44], for which the Emax on DCN1 protein was 80 to 100%. Moreover, the results for the concentration for half-maximal inhibition (IC50) in assay [1] (setting [2]) and in assay [1] (setting [3]) were not above 200 nM and 200 to 1000 nM, respectively.

As for `C=CC(=O)Nc1cccc([C@H]2c3c(C)nn(-c4ccccc4)c3N(CC)C(=O)[C@@H]2NC(=O)c2cccc(C(F)(F)F)c2)c1` (racemic) [Compound I-77], the maximum response (Emax) at DCN1 protein was 80 to 100%. Also, the IC50 fell in the range of 200 to 1000 nM in assay [1] (setting [2]) and 1000 to 3000 nM in assay [1] (setting [3]).

In the case of `C/C=C/C(=O)Nc1cccc([C@H]2c3c(C)nn(-c4ccccc4)c3N(CC)C(=O)[C@H]2NC(=O)c2cccc(C(F)(F)F)c2)c1` (racemic) [Compound I-23], on DCN1 protein, the maximal response (Emax) was 0 to 30%. Moreover, the half-inhibitory concentration (IC50) in assay [1] (setting [2]) and in assay [1] (setting [3]) was more than 3000 nM in each case.

As to `C=C(CN1CCN(C2COC2)CC1)C(=O)N(C)Cc1cccc([C@@H]2c3cnn(-c4ccccc4)c3N(CC)C(=O)[C@H]2NC(=O)c2cccc(C(F)(F)F)c2)c1` [Compound I-218], on DCN1 protein, the Emax was in the range of 80 to 100%. Moreover, the half-inhibitory concentration (IC50) in assay [1] (setting [2]) and in assay [1] (setting [3]) was not above 200 nM each time.

Regarding `C=C(CN1CC2(COC2)C1)C(=O)Nc1cccc([C@@H]2c3c(C)nn(-c4ccccc4)c3N(CC)C(=O)[C@H]2NC(=O)c2cccc(C(F)(F)F)c2)c1` (racemic) [Compound I-64], on DCN1 protein, the maximal effect (Emax) lay within 80 to 100%. Further, the 50% inhibitory concentration (IC50) in assay [1] (setting [2]) and in assay [1] (setting [4]) was not above 200 nM each time.

At DCN1 protein, `C=C(CN1CCOCC1)C(=O)Nc1ccccc1[C@H]1c2cnn(-c3ccccc3)c2N(CC)C(=O)[C@@H]1NC(=O)c1cccc(C(F)(F)F)c1` (racemic) [Compound I-15] displayed an Emax of 80 to 100%. The concentration for half-maximal inhibition (IC50) in assay [1] (setting [2]) and in assay [1] (setting [4]) was not above 200 nM in each case.

On DCN1 protein, `C=C(CN1CCC(F)(F)C1)C(=O)Nc1cccc([C@@H]2c3c(C)nn(-c4ccccc4)c3N(CC)C(=O)[C@H]2NC(=O)c2cccc(C(F)(F)F)c2)c1` (racemic) [Compound I-60] showed a maximal response (Emax) of 80 to 100%. Also, the concentration for half-maximal inhibition (IC50) in assay [1] (setting [2]) and in assay [1] (setting [4]) was not above 200 nM in each case.

On DCN1 protein, `C=C(C(=O)NCc1cccc([C@@H]2c3cnn(-c4ccccc4)c3N(CC)C(=O)[C@H]2NC(=O)c2nccc(C(F)(F)F)n2)c1)C(C)N1CC2(COC2)C1` (stereo partly drawn) [Compound I-221, N-((4R,5S)-7-ethyl-4-(3-((2-methylene-3-(2-oxa-6-azaspiro[3.3]heptan-6-yl)butanamido)methyl)phenyl)-6-oxo-1-phenyl-4,5,6,7-tetrahydro-1H-pyrazolo[3,4-b]pyridin-5-yl)-4-(trifluoromethyl)pyrimidine-2-carboxamide] returned an Emax of 80 to 100%. For the same compound, the half-maximal inhibitory concentration (IC50) in assay [1] (setting [2]) and in assay [1] (setting [4]) was not above 200 nM each time.

Take `CCN1C(=O)[C@H](NC(=O)c2cccc(C(F)(F)F)c2)[C@@H](c2cccc(N3CC=CC3=O)c2)c2c(C)nn(-c3ccccc3)c21` (racemic) [Compound I-28, rac-N-((4R,5S)-7-ethyl-3-methyl-6-oxo-4-(3-(2-oxo-2,5-dihydro-1H-pyrrol-1-yl)phenyl)-1-phenyl-4,5,6,7-tetrahydro-1H-pyrazolo[3,4-b]pyridin-5-yl)-3-(trifluoromethyl)benzamide]: at DCN1 protein, the maximal response (Emax) is 80 to 100%. Besides, the IC50 in assay [1] (setting [2]) and in assay [1] (setting [3]) was 1000 to 3000 nM in each case.

As to `C=C(CN1CCOCC1)C(=O)NCc1cccc([C@@H]2c3cnn(-c4ccccc4)c3N(CC)C(=O)[C@H]2NC(=O)c2ccnn2C(F)(F)F)c1` [Compound I-86], the maximal response (Emax) on DCN1 protein lay in the range of 0 to 30%. In addition, the IC50 in assay [1] (setting [2]) and in assay [1] (setting [3]) was 1000 to 3000 nM throughout.

For `CCN1C(=O)[C@H](NC(=O)c2cccc(C(F)(F)F)c2)[C@@H](c2cccc(NC(=O)/C(C#N)=C/C(C)(C)C)c2)c2c(C)nn(-c3ccccc3)c21` (racemic) [Compound I-69, ˜{N}—[˜{rac}-(4˜{S},5˜{R})-7-ethyl-3-methyl-6-oxo-1-phenyl-4-[3-[[˜{rac}-(˜{E})-2-cyano-4,4-dimethyl-pent-2-enoyl]amino]phenyl]-4,5-dihydropyrazolo[3,4-b]pyridin-5-yl]-3-(trifluoromethyl)benzamide], the maximal effect (Emax) on DCN1 protein lay within 80 to 100%. Besides, the IC50 in assay [1] (setting [2]) and in assay [1] (setting [3]) was 200 to 1000 nM in each case.

Consider `CCN1C(=O)[C@H](NC(=O)c2cccc(C(F)(F)F)c2)[C@@H](c2cccc(NC(=O)[C@H](F)Cl)c2)c2c(C)nn(-c3ccccc3)c21` (mixture of isomers) [Compound I-150], for which the maximal effect (Emax) at DCN1 protein lay within 80 to 100%. For the same compound, the figures for the half-maximal inhibitory concentration (IC50) in assay [1] (setting [2]) and in assay [1] (setting [3]) were 200 to 1000 nM and 1000 to 3000 nM, respectively.

In turn, `C=C(CN1CCOCC1)C(=O)Nc1cccc([C@H]2c3c(C)nn(-c4ccccc4)c3N(CC)C(=O)[C@@H]2NC(=O)c2ccn(C(F)(F)F)n2)c1` (racemic) [Compound I-65] yielded an Emax at DCN1 protein of 80 to 100%. The IC50 in assay [1] (setting [2]) and in assay [1] (setting [4]) was not above 200 nM throughout.

`C=C(CN1CC2(COC2)C1)C(=O)N(C)Cc1cccc([C@@H]2c3cnn(-c4ccccc4)c3N(CC)C(=O)[C@H]2NC(=O)c2cccc(C(F)(F)F)c2)c1` [Compound I-219] registered an Emax at DCN1 protein of 80 to 100%. Moreover, the half-maximal inhibitory concentration (IC50) in assay [1] (setting [2]) is not above 200 nM; in assay [1] (setting [3]), 200 to 1000 nM.

With `C/C=C(\CN1CCN(C2COC2)CC1)C(=O)Nc1cccc([C@@H]2c3c(C)nn(-c4ccccc4)c3N(CC)C(=O)[C@H]2NC(=O)c2nccc(C(F)(F)F)n2)c1` (racemic) [Compound I-229], the Emax at DCN1 protein was 80 to 100%. Moreover, the half-maximal inhibitory concentration (IC50) in assay [1] (setting [2]) and in assay [1] (setting [3]) was not above 200 nM in each case.

For `C=C(CN1CCN(C2COC2)CC1)C(=O)NCc1cccc([C@@H]2c3cnn(-c4ccccc4)c3N(CC)C(=O)[C@H]2NC(=O)c2cccc(C(F)(F)F)c2)c1` [Compound I-4], the maximal response (Emax) at DCN1 protein lay within 80 to 100%. The IC50 in assay [1] (setting [2]) and in assay [1] (setting [4]) was not above 200 nM each time.

At DCN1 protein, `CCN1C(=O)[C@@H](NC(=O)c2cccc(C(F)(F)F)c2)[C@@H](c2cccc(NC#N)c2)c2c(C)nn(-c3ccccc3)c21` (racemic) [Compound I-22] displayed an Emax of 0 to 30%. Further, the IC50 in assay [1] (setting [2]) and in assay [1] (setting [3]) was more than 3000 nM throughout.

As to `C=C(CN(C)C1COC1)C(=O)NCc1cccc([C@@H]2c3cnn(-c4ccccc4)c3N(CC)C(=O)[C@H]2NC(=O)c2cccc(C(F)(F)F)c2)c1` [Compound I-66], the Emax at DCN1 protein is 80 to 100%. Also, the concentration for half-maximal inhibition (IC50) in assay [1] (setting [2]) and in assay [1] (setting [4]) was not above 200 nM each time.

Regarding `C=C(CN1CCOCC1)C(=O)NCc1cccc([C@@H]2c3cnn(-c4ccccc4)c3N(CC)C(=O)[C@H]2NC(=O)c2ccn(C(F)(F)F)n2)c1` [Compound I-135], the maximum response (Emax) at DCN1 protein was 80 to 100%. The IC50 in assay [1] (setting [2]) and in assay [1] (setting [4]) was not above 200 nM each time.

For the compound `CCN1C(=O)[C@H](NC(=O)c2cccc(C(F)(F)F)c2)[C@@H](c2cccc(NC(=O)/C(C#N)=C/C3CC3)c2)c2c(C)nn(-c3ccccc3)c21` (racemic) [Compound I-68, rac-N-((4R,5S)-4-(3-((E)-2-cyano-3-cyclopropylacrylamido)phenyl)-7-ethyl-3-methyl-6-oxo-1-phenyl-4,5,6,7-tetrahydro-1H-pyrazolo[3,4-b]pyridin-5-yl)-3-(trifluoromethyl)benzamide], the maximal effect (Emax) on DCN1 protein was 80 to 100%. Besides, the IC50 in assay [1] (setting [2]) is 200 to 1000 nM; in assay [1] (setting [3]), not above 200 nM.

For `C=C(CN1CCOCC1)C(=O)NCc1cccc([C@@H]2c3cnn(-c4ccccc4)c3N(CC)C(=O)[C@H]2NC(=O)c2nccc(C(F)(F)F)n2)c1` [Compound I-82], on DCN1 protein, the Emax lay in the range of 80 to 100%. For the same compound, the 50% inhibitory concentration (IC50) in assay [1] (setting [2]) and in assay [1] (setting [4]) was not above 200 nM throughout.

As to `C=C(C)C(=O)Nc1cccc([C@H]2c3c(C)nn(-c4ccccc4)c3N(CC)C(=O)[C@H]2NC(=O)c2cccc(C(F)(F)F)c2)c1` (racemic) [Compound I-17], the maximal effect (Emax) on DCN1 protein was 0 to 30%. In addition, the 50% inhibitory concentration (IC50) in assay [1] (setting [2]) and in assay [1] (setting [3]) was more than 3000 nM throughout.

In turn, `CCN1C(=O)[C@H](NC(=O)c2cccc(C(F)(F)F)c2)[C@@H](c2cccc(NC(=O)CC#N)c2)c2c(C)nn(-c3ccccc3)c21` (racemic) [Compound I-103] registered a maximal response (Emax) at DCN1 protein of 0 to 30%. Also, the IC50 in assay [1] (setting [2]) and in assay [1] (setting [3]) was 1000 to 3000 nM in each case.

`C=C(CN1CCOCC1)C(=O)NCc1cccc([C@@H]2c3c(C)nn(-c4ccccc4)c3N(CC)C(=O)[C@H]2NC(=O)c2cccc(C(F)(F)F)c2)c1` [Compound I-215]: the Emax at DCN1 protein fell in the range of 80 to 100%. For the same compound, the 50% inhibitory concentration (IC50) in assay [1] (setting [2]) and in assay [1] (setting [4]) was not above 200 nM in each case.

As to `CCN1C(=O)[C@@H](NC(=O)c2nccc(C(F)(F)F)n2)[C@H](c2cccc(NC(=O)C3=CCN(C)C3)c2)c2c(C)nn(-c3ccccc3)c21` [Compound I-224], the Emax at DCN1 protein fell in the range of 80 to 100%. In addition, the results for the half-maximal inhibitory concentration (IC50) in assay [1] (setting [2]) and in assay [1] (setting [3]) were not above 200 nM and 200 to 1000 nM, respectively.

As to `C=C(CN1CCOCC1)C(=O)Nc1cccc([C@H]2c3c(C)nn(-c4ccccc4)c3N(CC)C(=O)C2NC(=O)c2cccc(C(F)(F)F)c2)c1` (stereo in doubt) [Compound I-83, N-((4S,5R)-7-ethyl-3-methyl-4-(3-(2-(morpholinomethyl)acrylamido)phenyl)-6-oxo-1-phenyl-4,5,6,7-tetrahydro-1H-pyrazolo[3,4-b]pyridin-5-yl)-3-(trifluoromethyl)benzamide], on DCN1 protein, the “% Adduct Formation (MS Emax)” value is “++ (MS Emax % adduct formation greater than 30.0 and less than or equal to 80.0)”. In addition, the IC50 in assay [1] (setting [2]) and in assay [1] (setting [4]) was not above 200 nM throughout.

In general, Emax refers to the size of the effect at its maximum, as opposed to the concentration needed. Broadly, the IC50 is the concentration that inhibits the measured activity by half.
